Measured values reported in US12280060B2, “Methods of treating cancer using neuronal activity inhibiting agents” (Washington University, priority 2021, dated 2025).
Entries after “also recorded” stand apart in the source; their conditions may differ.

Key:
neurofibromas = conditions: cited from earlier work
midkine [1] = assay type: cell-based, mouse
midkine [2] = assay type: cell-based, mouse; remark: listed apart in the source
[3] = tested on: Nf1+/neo hippocampal neurons; assay type: cell-based, mouse
Nf1+/neo DRG neurons = assay type: cell-based, mouse
Nf1+/neo RGC neurons = assay type: cell-based, mouse
RAS = assay type: cell-based, mouse
Col1a2 [4] = assay type: cell-based, mouse
[5] = tested on: NF1-pNFs in athymic nude mice; experiment: In vivo pNF progression (Nf1-/- DRG-NSCs implanted in sciatic nerve); parameters: species or system mouse
[6] = tested on: Nf1+/neo and Nf1-OPG mice; experiment: In vivo treatment: Mdk/midkine, Nlgn3, Adam10 expression in retinae and optic nerves; parameters: species or system mouse; conditions: for effect on midkine expression in the RGC layer of retinae: 12-week-old Nf1-OPG mice, LTR or lovastatin in vivo; for effect on Nlgn3 RNA expression in vivo: retinae / optic nerves of Nf1+/neo or Nf1-OPG mice
Protocol: Supplementary Table 2) and TaqMan Fast Advanced Master Mix (Applied Biosystems) according to the manufacturer's instructions. All reactions were performed using the Bio-Rad CFX96 Real-Time PCR system equipped with Bio-Rad CFX Manager 3.1 software. Gene expression levels of technical replicates were estimated by ΔΔCt method using GAPDH or Gapdh (see e.g., TABLE 2) as reference genes. In total, 17 Nf1^flox/neo; GFAP-Cre (Nf1-OPG) mice were intraperitoneally administered vehicle (saline in 1% methylcellulose; n=9) or 25 mg/Kg body weight lamotrigine (Selleckchem; n=8) from four to six weeks of age, three times a week. The mice were then aged to 12 weeks for optic nerve and RGC analysis. […] The mice were analyzed at 12 weeks of age. […] These mice were analyzed at 24 weeks of age. […] These mice were analyzed at 12 weeks of age. For pNF analyses, Nf1^−/− DRG-NSCs were implanted in sciatic nerves of 8-week-old athymic nude mice as previously described. Briefly, the mice underwent surgery to create a pocket by displacing the quadriceps muscle and exposing their sciatic nerve. In all, 1×10^6 Nf1^−/− DRG-NSCs were implanted in the pocket around the sciatic nerve, such that the cells could be in direct contact with the nerve before the muscle and skin were sutured. Following recovery from the surgery, the mice were intraperitoneally administered vehicle (saline in 1% methylcellulose; n=5) or 25 mg/kg body weight lamotrigine (Selleckchem; n=5) three times a week for 6 weeks prior to histological analysis.

[7] = tested on: Nf1f/neo; hGFAP-Cre (Nf1-OPG) mice; experiment: In vivo Nf1-OPG (optic pathway glioma) progression; parameters: species or system mouse; conditions: for optic nerve proliferation (% Ki67+ cells), fold decrease: mouse, in vivo
Nf1-mutant neurons = experiment: Excitability of Nf1-mutant neurons; assay type: cell-based
Protocol: (§1) Nf1-mutant neurons were treated with the antiepileptic drug rufinamide. Treatment with rufinamide reduced Midkine expression (see e.g., FIG. 47) and neuronal excitability (see e.g., FIG. 48).

Midkine [8] = experiment: Mdk (Midkine transcript) levels in Nf1-mutant neurons; assay type: cell-based
Protocol: as §1

[9] = tested on: human shNF1 Schwann cells; experiment: Human shNF1 Schwann cell proliferation (Ki67+); assay type: cell-based; conditions: shNF1 SCs
COL1A2 [10] = experiment: COL1A2 RNA expression in human shNF1 Schwann cells; assay type: cell-based; conditions: COL1A2 treatment
Nf1-/- DRG-NSCs = experiment: Nf1-/- DRG-NSC proliferation (Ki67+); assay type: cell-based, mouse
Col1a2 [11] = experiment: COL1A2 RNA expression in mouse Nf1-/- DRG-NSCs; assay type: cell-based; conditions: COL1A2 treatment
[12] = tested on: WT and Nf1+/1809 RGC neurons; assay type: cell-based, mouse
[13] = 25 mg/kg intraperitoneal three times a week for 6 weeks
[14] = 25 mg/kg intraperitoneal three times a week for 6 weeks, listed as LTR
[15] = Nf1-OPG mice, LTR 25 mg/kg/day intraperitoneally, vs vehicle
[16] = Nf1-OPG mice, lamotrigine intraperitoneal, 3 months of age, vs vehicle

Compound: Cc1ccc(=O)n(-c2ccccc2)c1 [Pirfenidone]
- efficacy in human clinical trials (neurofibromas): no efficacy

Compound: NC1=N[C@H](O)[C@H]2[C@H]3O[C@]4(O)O[C@@H]([C@@H](O)[C@@]2(N1)[C@@H]4O)[C@]3(O)CO [TTX, tetrodotoxin]
- effect on midkine secretion / expression (midkine [1]): reduced
- midkine levels, fold decrease (midkine [1]): 1.9 fold
- effect on midkine expression / secretion (midkine [2]): reduced
- effect on AP firing rates [3]: reduced
- effect on DRG neuron AP firing rate / neuronal activity (Nf1+/neo DRG neurons): reduce
- effect on AP firing rate / RGC activity (Nf1+/neo RGC neurons): reduced
- neuronal activity (AP firing rate), fold decrease (Nf1+/neo RGC neurons): > 80 fold
- effect on RAS activity (RAS-GTP) (RAS): reduced
- Col1a2 secretion / expression, fold reduction (Col1a2 [4]): 3.6 fold
- reduction of Col1a2 secretion (Col1a2 [4]): 73%

Compound: Nc1nnc(-c2cccc(Cl)c2Cl)c(N)n1 [lamotrigine]
- effect on Col1a2 production / immunoreactivity within the tumors [5, 13]: reduced
- effect on neuronal histology (H&E) [5, 13]: partly restored
- effect on pNF progression in vivo [5, 13]: decreases
- effect on pNF size [5, 13]: reduced
- effect on Col1a2 production / immunoreactivity within the tumors [5, 14]: decreases
- effect on neuronal histology (H&E) [5, 14]: partly restores
- effect on pNF size [5, 14]: reduces
- effect on proliferation (Ki67+ cells) within the tumors ([5]; mouse, in vivo): reduces
- effect on midkine secretion / expression (midkine [1]): reduced
- midkine levels, fold decrease (midkine [1]): 2.2 fold
- effect on midkine expression / secretion (midkine [2]): reduced
- effect on midkine expression in the RGC layer of retinae [6]: reduced
- effect on Mdk transcript relative expression in retinae ([6]; Nf1+/neo mice, LTR in vivo): decreased
- Mdk RNA and protein levels in retinae, fold decrease ([6]; Nf1+/neo retinae, lamotrigine in vivo, relative to vehicle): 1.9-2.3 fold
- Mdk levels in optic nerves, fold decrease ([6]; optic nerves, lamotrigine in vivo, relative to vehicle): 1.7-2 fold
- effect on Adam10 RNA expression in vivo ([6]; retinae / optic nerves of 12 week-old Nf1+/neo or Nf1-OPG mice, lamotrigine in vivo): did not change; also recorded: unchanged
- effect on Nlgn3 RNA expression in vivo ([6]; lamotrigine in vivo): did not change
- effect on Nlgn3 RNA expression in vivo ([6]; lamotrigine in vivo, listed as LTR): unaltered
- effect on AP firing rates [3]: reduced
- effect on DRG neuron AP firing rate / neuronal activity (Nf1+/neo DRG neurons): reduce
- effect on AP firing rate / RGC activity (Nf1+/neo RGC neurons): reduced
- firing rates, % decrease (Nf1+/neo RGC neurons): > 80%
- effect on CD3+ cells in optic nerves [7, 15]: reduced
- effect on Iba1+ cells in optic nerves [7, 15]: reduced
- effect on Ki67+ cells in optic nerves [7, 15]: reduced
- effect on OPG development ([7]; Nf1-OPG mice, at 3 months of age): reduced
- effect on optic nerve volumes ([7]; Nf1-OPG mice, lamotrigine intraperitoneal, 3 months of age): did not decrease
- T-cell (CD3+ cells) content, fold decrease [7, 16]: 1.6 fold
- microglia (% Iba1+ cells) content, fold decrease [7, 16]: 1.7 fold
- optic nerve volumes relative to WT controls, fold increased ([7]; lamotrigine-treated Nf1-OPG mice): 1.5 fold
- optic nerve proliferation (% Ki67+ cells), fold decrease [7]: 1.5 fold
- optic nerve proliferation (% Ki67+ cells), fold decrease ([7]; ip): 5.7 fold
- optic nerve proliferation (% Ki67+ cells), fold decrease ([7]; po, 10 mg/kg/day): 4 fold
- microglia (% Iba1+ cells) content, fold decrease ([7]; treatment from 4-8 weeks, 6 month-old Nf1-OPG mice, vs vehicle): 1.4 fold
- effect on RAS activity (RAS-GTP) (RAS): reduced
- Col1a2 secretion / expression, fold reduction (Col1a2 [4]): 1.8 fold
- reduction of Col1a2 secretion (Col1a2 [4]): 47%

Compound: CC[C@H](C)C(=O)O[C@H]1C[C@@H](C)C=C2C=C[C@H](C)[C@H](CC[C@@H]3C[C@@H](O)CC(=O)O3)[C@H]21 [lovastatin]
- effect on midkine expression in the RGC layer of retinae [6]: decreased; also recorded: reduced

Compound: NC(=O)c1cn(Cc2c(F)cccc2F)nn1 [rufinamide]
- effect on neuronal excitability (Nf1-mutant neurons): reduces
- effect on Mdk (Midkine transcript) levels / Midkine expression (Midkine [8]): reduces

Compound: COL1A2: collagen-1A2; neurofibroma mitogen produced by peripheral neurons, applied to Schwann cells and DRG-NSCs
- proliferation, fold increase in Ki67+ cells ([9]; COL1A2 12.5 μg/mL): 2.5-2.9 fold
- effect on COL1A2 RNA expression (COL1A2 [10]): increased
- proliferation, fold increase in Ki67+ cells (Nf1-/- DRG-NSCs; COL1A2 12.5 μg/mL): 2.5-2.9 fold
- effect on COL1A2 RNA expression (Col1a2 [11]): increased

Compound: ZD7288
- RGC neuron midkine production, fold increase (midkine [1]): 14-15 fold
- effect on midkine production (midkine [1]): increased
- effect on midkine expression / secretion (midkine [2]): increases
- effect on Adam10 transcript expression [12]: did not alter
- effect on Nlgn3 transcript expression [12]: did not alter
- DRG Col1a2 secretion, fold increase (Col1a2 [4]): 2-2.8 fold
- effect on Col1a2 secretion (Col1a2 [4]): increases

Compound: collagenase
- effect on the increase in proliferation conferred by NF1-mutant sensory neuron CM or COL1A2 ([9]; collagenase): completely abrogated
- effect on the increase in proliferation conferred by NF1-mutant sensory neuron CM or COL1A2 (Nf1-/- DRG-NSCs; collagenase): completely abrogated
